According to ChEMBL document CHEMBL1201862, “PubChem BioAssay data set” (2004):
The source made the active and inactive calls.

Legend:
[1] = target: Peroxisome proliferator-activated receptor gamma/Nuclear receptor corepressor 2 (Homo sapiens, UniProt P37231+Q9Y618); assay: Counterscreen for NR2E3 inverse agonists: TR-FRET-based biochemical high throughput dose response assay to identify inverse agonists of the interaction between peroxisome proliferator-activated receptor gamma (PPARg) and nuclear receptor co-repressor 2 (NCOR2).; type: functional
[2] = target: Photoreceptor-specific nuclear receptor (Homo sapiens, UniProt Q9Y5X4); assay: NR2E3 inverse agonists, dose response, biochemical, TR-FRET (AID 463256); type: functional
Sequence of Photoreceptor-specific nuclear receptor (Q9Y5X4 whole entry): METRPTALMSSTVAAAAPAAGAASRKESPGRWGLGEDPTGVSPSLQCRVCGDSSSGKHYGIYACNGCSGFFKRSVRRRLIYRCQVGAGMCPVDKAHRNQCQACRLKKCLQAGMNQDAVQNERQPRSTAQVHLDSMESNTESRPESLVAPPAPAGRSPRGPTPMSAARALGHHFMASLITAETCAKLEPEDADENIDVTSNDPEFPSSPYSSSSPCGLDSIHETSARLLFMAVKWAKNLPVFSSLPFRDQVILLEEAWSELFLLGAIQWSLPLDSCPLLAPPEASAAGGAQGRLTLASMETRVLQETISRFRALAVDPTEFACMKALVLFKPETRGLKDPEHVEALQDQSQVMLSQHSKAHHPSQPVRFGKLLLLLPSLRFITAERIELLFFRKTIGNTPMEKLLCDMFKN

[3] = P. falciparum late gametocyte killing, dose response, luminescence (AID 1117278); type: functional, cell-based;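 also: gametocytes exposed to compound for 24 hours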
[4] = Jurkat T cell cytotoxicity, dose response, cytotoxicity control for P. falciparum gametocyte viability project, luminescence (AID 1117277); type: functional, cell-based;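 also: potency reflects loss of cellular ATP meaning fewer viable cells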
[5] = tested on: Danio rerio; assay: In Vivo Angiogenesis Dose-Response Confirmation. [Related pubchem assays: 732 (Assay preceding this confirmatory assay.)]; type: functional, organism-based
[6] = A549 cell cytotoxicity, dose response, cytotoxicity control, plate reader, dry powder, set 7 (AID 743318); type: functional, cell-based
[7] = Concentration-dependent survival of SW480 colon cancer line, luminescence detection with CellTiter-Glo, half-maximal inhibitory concentration (AID 1117338); type: functional
[8] = RKO cell viability reduction, dose response, CellTiter-Glo luminescence (AID 1117322); type: functional
[9] = cytotoxicity toward HCT116 cells – cell-based, CellTiter-Glo luminescence, IC50, dose response (AID 1117332); type: functional; conditions: HCT-116
[10] = SNU-C1 cell viability reduction, dose response, CellTiter-Glo luminescence (AID 1117323); type: functional, cell-based
[11] = cytotoxicity toward Colo320 cells – cell-based, CellTiter-Glo luminescence, IC50, dose response (AID 1117334); type: functional; conditions: COLO 320
[12] = cytotoxicity toward HT-29 cells – cell-based, CellTiter-Glo luminescence, IC50, dose response (AID 1117330); type: functional
[13] = CellTiter-Glo luminescent dose response of DLD-1 viability loss (AID 1117352); type: functional
[14] = HCT116 cell viability decrease, GSK3B pretreatment – CellTiter-Glo, IC50, dose response (AID 1117339); type: functional; conditions: HCT-116
[15] = target: Peroxisome proliferator-activated receptor gamma/Nuclear receptor coactivator 1 (Homo sapiens, UniProt P37231); assay: (§1) TR-FRET dose response biochemical High Throughput Screening assay for agonists of the steroid receptor coactivator 1 (SRC-1) recruitment by the peroxisome proliferator-activated receptor gamma (PPAR gamma): non-selective agonists. [Related pubchem assays (depositor defined):AID1300, AID1808, AID504735, AID631]; type: protein assay
Sequence of Peroxisome proliferator-activated receptor gamma/Nuclear receptor coactivator 1 (P37231 whole entry): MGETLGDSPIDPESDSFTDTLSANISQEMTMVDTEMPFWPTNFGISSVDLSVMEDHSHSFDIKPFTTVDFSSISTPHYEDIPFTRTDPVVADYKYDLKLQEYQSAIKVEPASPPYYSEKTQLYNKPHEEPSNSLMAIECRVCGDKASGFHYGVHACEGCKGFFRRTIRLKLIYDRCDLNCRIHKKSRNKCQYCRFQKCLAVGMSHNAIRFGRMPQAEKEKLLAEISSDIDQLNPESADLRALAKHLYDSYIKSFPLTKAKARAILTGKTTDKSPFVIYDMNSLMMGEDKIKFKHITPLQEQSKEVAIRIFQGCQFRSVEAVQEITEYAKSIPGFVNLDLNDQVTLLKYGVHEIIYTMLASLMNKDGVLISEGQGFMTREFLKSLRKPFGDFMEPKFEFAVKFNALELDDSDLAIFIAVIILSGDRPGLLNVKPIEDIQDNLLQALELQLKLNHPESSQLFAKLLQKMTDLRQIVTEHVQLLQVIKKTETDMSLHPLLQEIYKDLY
Sequence of Peroxisome proliferator-activated receptor gamma/Nuclear receptor coactivator 1 (Q15788 whole entry, further chain): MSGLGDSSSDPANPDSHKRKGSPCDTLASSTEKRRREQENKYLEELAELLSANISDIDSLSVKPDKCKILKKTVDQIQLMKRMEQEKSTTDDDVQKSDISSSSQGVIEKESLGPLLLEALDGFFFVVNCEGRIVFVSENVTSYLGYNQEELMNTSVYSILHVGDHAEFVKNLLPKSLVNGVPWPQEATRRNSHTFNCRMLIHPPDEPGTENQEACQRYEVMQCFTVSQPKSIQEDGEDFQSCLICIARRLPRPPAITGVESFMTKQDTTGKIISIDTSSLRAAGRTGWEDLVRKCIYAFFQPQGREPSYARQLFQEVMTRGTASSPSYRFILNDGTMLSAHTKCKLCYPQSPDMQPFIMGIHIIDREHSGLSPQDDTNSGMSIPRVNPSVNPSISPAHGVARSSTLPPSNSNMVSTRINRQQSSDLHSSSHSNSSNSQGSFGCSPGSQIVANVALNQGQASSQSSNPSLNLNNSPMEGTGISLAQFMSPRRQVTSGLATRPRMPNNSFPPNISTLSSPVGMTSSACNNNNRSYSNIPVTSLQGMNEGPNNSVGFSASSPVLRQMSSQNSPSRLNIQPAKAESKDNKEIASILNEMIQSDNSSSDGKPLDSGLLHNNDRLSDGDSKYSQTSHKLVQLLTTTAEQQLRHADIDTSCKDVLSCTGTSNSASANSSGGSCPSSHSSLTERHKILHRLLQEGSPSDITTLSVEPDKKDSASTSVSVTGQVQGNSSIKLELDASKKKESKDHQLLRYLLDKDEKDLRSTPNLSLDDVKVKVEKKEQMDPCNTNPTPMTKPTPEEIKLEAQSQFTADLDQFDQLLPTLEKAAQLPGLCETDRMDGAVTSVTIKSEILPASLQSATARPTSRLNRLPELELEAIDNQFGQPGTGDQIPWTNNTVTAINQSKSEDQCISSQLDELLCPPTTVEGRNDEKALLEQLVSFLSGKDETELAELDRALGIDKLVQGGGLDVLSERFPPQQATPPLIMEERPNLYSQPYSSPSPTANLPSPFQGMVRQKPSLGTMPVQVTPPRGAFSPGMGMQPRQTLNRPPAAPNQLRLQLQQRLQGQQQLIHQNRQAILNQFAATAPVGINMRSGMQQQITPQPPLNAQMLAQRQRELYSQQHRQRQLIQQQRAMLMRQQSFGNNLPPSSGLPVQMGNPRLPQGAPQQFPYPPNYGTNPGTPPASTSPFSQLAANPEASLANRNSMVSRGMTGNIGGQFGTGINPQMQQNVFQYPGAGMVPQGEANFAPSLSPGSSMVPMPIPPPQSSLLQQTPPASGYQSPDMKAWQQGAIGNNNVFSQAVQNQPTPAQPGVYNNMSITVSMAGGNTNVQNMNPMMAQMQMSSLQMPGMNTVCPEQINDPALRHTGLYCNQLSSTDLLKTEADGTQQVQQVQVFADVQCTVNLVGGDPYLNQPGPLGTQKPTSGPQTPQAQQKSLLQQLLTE

[16] = target: Peroxisome proliferator-activated receptor gamma/Nuclear receptor coactivator 3 (Homo sapiens, UniProt P37231); assay: as §1, with “3 (SRC-3)” for “1 (SRC-1)”, “assays: 1301 (Confirmation screen.), 1048 (Primary screen.)]” for “assays (depositor defined):AID1300, AID1808, AID504735, AID631]”; type: functional
Sequence of Peroxisome proliferator-activated receptor gamma/Nuclear receptor coactivator 3 (P37231 whole entry): as the sequence (P37231 whole entry) above
Sequence of Peroxisome proliferator-activated receptor gamma/Nuclear receptor coactivator 3 (Q9Y6Q9 whole entry, further chain): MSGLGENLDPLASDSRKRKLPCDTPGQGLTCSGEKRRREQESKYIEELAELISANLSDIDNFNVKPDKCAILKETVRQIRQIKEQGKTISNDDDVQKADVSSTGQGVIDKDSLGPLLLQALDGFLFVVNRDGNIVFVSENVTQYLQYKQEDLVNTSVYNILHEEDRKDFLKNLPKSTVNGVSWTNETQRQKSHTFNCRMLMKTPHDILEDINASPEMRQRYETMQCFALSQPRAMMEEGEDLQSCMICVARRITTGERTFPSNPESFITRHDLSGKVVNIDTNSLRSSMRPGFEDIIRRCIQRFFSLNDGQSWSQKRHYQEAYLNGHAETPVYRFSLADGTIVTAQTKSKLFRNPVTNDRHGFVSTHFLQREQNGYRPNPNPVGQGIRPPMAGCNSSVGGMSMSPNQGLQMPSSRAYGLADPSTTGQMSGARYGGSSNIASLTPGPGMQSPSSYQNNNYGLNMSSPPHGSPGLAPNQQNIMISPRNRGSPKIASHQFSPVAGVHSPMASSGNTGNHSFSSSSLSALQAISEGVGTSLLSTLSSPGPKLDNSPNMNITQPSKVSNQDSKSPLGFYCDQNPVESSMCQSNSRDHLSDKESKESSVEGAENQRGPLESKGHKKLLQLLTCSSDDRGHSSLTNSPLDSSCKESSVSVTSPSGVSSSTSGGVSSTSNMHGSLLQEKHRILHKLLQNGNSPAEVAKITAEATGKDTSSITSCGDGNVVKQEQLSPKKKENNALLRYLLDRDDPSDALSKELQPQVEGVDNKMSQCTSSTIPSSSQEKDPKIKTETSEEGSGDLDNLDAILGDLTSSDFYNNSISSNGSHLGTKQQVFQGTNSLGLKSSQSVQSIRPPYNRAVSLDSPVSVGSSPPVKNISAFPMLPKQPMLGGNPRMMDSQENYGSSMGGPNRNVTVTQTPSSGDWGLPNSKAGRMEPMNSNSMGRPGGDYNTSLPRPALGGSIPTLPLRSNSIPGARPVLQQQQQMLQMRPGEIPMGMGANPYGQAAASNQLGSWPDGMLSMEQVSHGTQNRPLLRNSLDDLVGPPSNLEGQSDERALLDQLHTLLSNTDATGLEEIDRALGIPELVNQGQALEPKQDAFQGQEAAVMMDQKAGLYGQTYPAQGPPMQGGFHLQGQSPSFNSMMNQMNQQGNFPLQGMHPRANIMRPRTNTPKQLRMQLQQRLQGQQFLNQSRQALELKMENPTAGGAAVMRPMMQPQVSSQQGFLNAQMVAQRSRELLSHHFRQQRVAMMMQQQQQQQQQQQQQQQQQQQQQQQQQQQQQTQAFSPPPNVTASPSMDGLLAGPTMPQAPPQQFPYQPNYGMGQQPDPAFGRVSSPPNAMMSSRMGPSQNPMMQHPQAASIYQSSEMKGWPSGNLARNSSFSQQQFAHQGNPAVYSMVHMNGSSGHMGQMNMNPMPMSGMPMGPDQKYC

[17] = target: Peroxisome proliferator-activated receptor gamma/Nuclear receptor coactivator 2 (Homo sapiens, UniProt P37231); assay: TR-FRET dose response biochemical High Throughput Screening assay for agonists of the steroid receptor coactivator 2 (SRC-2) recruitment by the peroxisome proliferator-activated receptor gamma (PPAR gamma): non-selective agonists. [Related pubchem assays: 1297, 1032 ]; type: functional
[18] = target: Mitogen-activated protein kinase 10 (Homo sapiens, UniProt P53779); assay: Dose response biochemical screening assay for inhibitors of c-Jun N-Terminal Kinase 3 (JNK3). [Related pubchem assays: 746 ]
Sequence of Mitogen-activated protein kinase 10 (P53779 whole entry): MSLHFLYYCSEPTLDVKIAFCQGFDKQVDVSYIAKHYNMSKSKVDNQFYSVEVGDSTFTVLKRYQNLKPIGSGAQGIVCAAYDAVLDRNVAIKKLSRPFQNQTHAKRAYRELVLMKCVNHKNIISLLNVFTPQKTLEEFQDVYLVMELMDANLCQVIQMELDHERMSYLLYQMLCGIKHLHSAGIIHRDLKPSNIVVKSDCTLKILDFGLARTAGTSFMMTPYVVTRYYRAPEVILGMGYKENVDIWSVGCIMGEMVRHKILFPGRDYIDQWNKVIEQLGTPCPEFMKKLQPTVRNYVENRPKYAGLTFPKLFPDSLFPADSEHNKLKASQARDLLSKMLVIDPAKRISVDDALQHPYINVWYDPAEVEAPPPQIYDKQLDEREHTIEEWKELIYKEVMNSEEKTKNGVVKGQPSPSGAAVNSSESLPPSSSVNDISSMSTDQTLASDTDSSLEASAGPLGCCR

[19] = target: T1, Mannose-6-phosphate isomerase (Homo sapiens, UniProt P34949); assay: PMI enzyme inhibitors, confirmation, biochemical, fluorescence intensity (AID 1535)
T1 sequence (P34949 whole entry): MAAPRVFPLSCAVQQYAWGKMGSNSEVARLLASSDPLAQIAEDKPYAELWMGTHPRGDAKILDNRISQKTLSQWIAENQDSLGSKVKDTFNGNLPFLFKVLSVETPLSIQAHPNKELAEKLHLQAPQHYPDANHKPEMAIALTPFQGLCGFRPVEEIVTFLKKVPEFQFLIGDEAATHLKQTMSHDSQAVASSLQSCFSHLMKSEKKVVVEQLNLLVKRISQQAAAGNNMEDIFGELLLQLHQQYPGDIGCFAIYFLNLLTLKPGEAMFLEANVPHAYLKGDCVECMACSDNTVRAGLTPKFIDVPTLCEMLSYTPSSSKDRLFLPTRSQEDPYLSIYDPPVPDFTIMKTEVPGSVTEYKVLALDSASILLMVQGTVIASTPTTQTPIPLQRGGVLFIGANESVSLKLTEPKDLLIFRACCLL

[20] = target: Phosphomannomutase 2 (Homo sapiens, UniProt O15305); assay: Counter screen SAR assay for PMM2 inhibitors via a fluorescence intensity assay. [Related pubchem assays (depositor defined):AID1545, AID1574]
Sequence of Phosphomannomutase 2 (O15305 whole entry): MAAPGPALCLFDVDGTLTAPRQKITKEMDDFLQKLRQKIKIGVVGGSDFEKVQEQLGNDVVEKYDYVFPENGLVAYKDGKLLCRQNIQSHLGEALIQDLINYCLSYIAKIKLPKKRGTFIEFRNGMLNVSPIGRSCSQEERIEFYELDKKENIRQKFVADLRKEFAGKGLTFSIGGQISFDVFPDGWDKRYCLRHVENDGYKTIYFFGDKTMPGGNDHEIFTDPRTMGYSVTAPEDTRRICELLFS

[21] = HEK293T cell cytotoxicity, dose response, cytotoxicity control, CellTiter-Glo luminescence, dry powder, set 2 (AID 720595); type: functional, cell-based; conditions: HEK293
[22] = HeLa cell cytotoxicity, dose response, cytotoxicity control, CellTiter-Glo luminescence, dry powder, set 2 (AID 720593); type: functional, cell-based

## Cc1cc(C)c2c(C)c(C(=O)NCc3ccc(S(N)(=O)=O)cc3)oc2c1
[1]
  IC50: 3.99 µM (active)
[2]
  IC50: 4.06 µM (active)

## O=C(O)c1ccc(-c2ccccc2)nc1O
[3]
  IC50: > 109 µM (inactive)
[4]
  IC50: > 83.2 µM (inactive)

## O=C1C(c2c(O)[nH]c3ccc(F)cc23)=Nc2ccccc21
[5]
  IC50: 2.17 µM (active)

## Cc1ccc(C(C)C)c(OCCn2c(=S)[nH]c3cccc(F)c32)c1
[6]
  AC50: 30.2 µM (active)

## CNC(=O)Oc1cccc2ccccc12 [CARBARIL]
[7]
  IC50: > 20 µM (inactive)
[8]
  IC50: > 20 µM (inactive)
[9]
  IC50: > 20 µM (inactive)
[10]
  IC50: > 20 µM (inactive)
[11]
  IC50: > 20 µM (inactive)
[12]
  IC50: > 20 µM (inactive)
[13]
  IC50: > 20 µM (inactive)
[14]
  IC50: > 20 µM (inactive)

## Sc1nnc(-c2cccc(Br)c2)o1
[15]
  EC50: 7.33 µM (active)
[16]
  EC50: > 79.4 µM (not active)
[17]
  EC50: 3.25 µM (active)
[18]
  IC50: > 93.1 µM (not active)
[19]
  IC50: > 50 µM (inactive)
[20]
  IC50: > 100 µM (inactive)

## CCCCC(=O)NC(c1ccco1)c1ccc2cccnc2c1O (configuration not stated)
[21]
  AC50: 3.78 µM (active)
[22]
  AC50: 28.4 µM (active)
